Results as given in ChEMBL document CHEMBL4420073, “Small molecule inhibitors of MUC1 and methods of identifying the same” (2015).
Active and inactive are the calls of the source. No cut-off for these calls is given here.

How the values were obtained:
Mucin-1 (Homo sapiens) [1] = target: Mucin-1 (Homo sapiens) (UniProt P15941); test: Inhibition of biotinylated MUC1-CD dimerization (unknown origin) assessed as decrease in oligomer formation at 100 uM by streptavidin-HRP based assay relative to control
Sequence of Mucin-1 (Homo sapiens) (P15941 24-1097 limits assumed): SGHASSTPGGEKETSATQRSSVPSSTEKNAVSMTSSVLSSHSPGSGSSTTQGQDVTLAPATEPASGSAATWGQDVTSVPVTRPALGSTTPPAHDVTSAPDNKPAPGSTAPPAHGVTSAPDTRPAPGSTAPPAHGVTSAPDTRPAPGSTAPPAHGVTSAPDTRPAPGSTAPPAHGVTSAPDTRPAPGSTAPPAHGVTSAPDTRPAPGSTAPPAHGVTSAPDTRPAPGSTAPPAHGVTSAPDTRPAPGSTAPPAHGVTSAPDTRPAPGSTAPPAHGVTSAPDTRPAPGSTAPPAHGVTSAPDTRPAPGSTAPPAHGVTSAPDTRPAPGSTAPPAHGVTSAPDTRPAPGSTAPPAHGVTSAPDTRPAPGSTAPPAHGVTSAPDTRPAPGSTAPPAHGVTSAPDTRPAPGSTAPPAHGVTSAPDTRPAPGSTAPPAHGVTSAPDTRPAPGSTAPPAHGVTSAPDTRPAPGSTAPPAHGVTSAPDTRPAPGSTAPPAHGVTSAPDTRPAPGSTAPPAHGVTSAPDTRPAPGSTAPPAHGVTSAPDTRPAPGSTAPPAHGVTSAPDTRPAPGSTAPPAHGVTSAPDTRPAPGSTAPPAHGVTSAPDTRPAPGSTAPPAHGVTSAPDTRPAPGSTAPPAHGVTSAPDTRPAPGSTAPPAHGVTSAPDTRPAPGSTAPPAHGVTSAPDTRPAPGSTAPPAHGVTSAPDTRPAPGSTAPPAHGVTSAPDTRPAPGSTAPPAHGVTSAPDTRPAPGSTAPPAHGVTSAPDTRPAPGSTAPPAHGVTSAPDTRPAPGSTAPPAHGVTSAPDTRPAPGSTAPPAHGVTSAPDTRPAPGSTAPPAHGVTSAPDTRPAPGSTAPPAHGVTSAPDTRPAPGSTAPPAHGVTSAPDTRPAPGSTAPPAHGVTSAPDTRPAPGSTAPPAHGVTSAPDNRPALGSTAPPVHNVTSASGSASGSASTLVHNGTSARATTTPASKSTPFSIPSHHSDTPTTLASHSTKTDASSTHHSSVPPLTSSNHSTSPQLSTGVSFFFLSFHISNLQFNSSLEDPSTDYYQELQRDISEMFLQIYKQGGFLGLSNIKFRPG
Sequence of Mucin-1 (Homo sapiens) (P15941 1098-1255 limits assumed): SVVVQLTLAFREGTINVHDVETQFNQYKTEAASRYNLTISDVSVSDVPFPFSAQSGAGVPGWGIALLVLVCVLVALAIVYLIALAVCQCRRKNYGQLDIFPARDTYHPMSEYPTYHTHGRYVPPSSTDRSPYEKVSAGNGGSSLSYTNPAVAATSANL

MCF-10A [2] = test: Induction of cell membrane integrity loss in immortalized human MCF10A cells assessed as PI uptake level at 50 uM incubated for 3 days by propidium iodide staining based flow cytometry (reference value: 23%); type: functional
Mucin-1 (Homo sapiens) [3] = target: Mucin-1 (Homo sapiens) (UniProt P15941); test: Inhibition of MUC1-CD dimerization in human MCF10A cells assessed as reduction in MUC1-C levels at 50 to 100 uM incubated for 3 days by immunoblot analysis; type: cell-based
MCF7 [4] = test: Induction of cell membrane integrity loss in human MCF7 cells assessed as PI uptake level at 75 uM incubated for 3 days by propidium iodide staining based flow cytometry (reference value: 22%); type: functional
Mucin-1 (Homo sapiens) [5] = target: Mucin-1 (Homo sapiens) (UniProt P15941); test: Inhibition of MUC1 in human MCF7 cells assessed as decrease in MUC1 protein level in whole cell lysates at 75 uM incubated for 3 days by immunoblot analysis; type: subcellular; settings: Lysate
MCF-10A [6] = test: Induction of cell membrane integrity loss in immortalized human MCF10A cells at 75 uM incubated for 3 days by propidium iodide staining based flow cytometry; type: functional
MCF-10A [7] = test: Growth inhibition of immortalized human MCF10A cells assessed as reduction in cell number up to 100 uM incubated for 3 days by MTS assay; type: functional, cell-based
Mucin-1 (Homo sapiens) [8] = target: Mucin-1 (Homo sapiens) (UniProt P15941); test: Inhibition of MUC1-CD dimerization (unknown origin) expressed in HEK293 cells assessed as disruption of interaction between Flag-MUC1-CD and GFP-MUC1-CD by coimmunoprecipitation assay; type: cell-based
MCF-10A [9] = test: Induction of apoptosis in immortalized human MCF10A cells assessed as caspase-9 cleavage at 75 uM incubated for 3 days by immunoblot analysis; type: functional, cell-based
Mucin-1 (Homo sapiens) [10] = target: Mucin-1 (Homo sapiens) (UniProt P15941); test: Inhibition of soluble unbound MUC1-CD dimerization (unknown origin) by immunoblot analysis
Mucin-1 (Homo sapiens) [11] = target: Mucin-1 (Homo sapiens) (UniProt P15941); test: Inhibition of MUC1 nuclear import in human MCF7 cells assessed as decrease in nuclear MUC1-C levels at 75 uM incubated for 3 days by immunoblot analysis; type: cell-based
MCF-10A [12] = test: Induction of cell membrane integrity loss in immortalized human MCF10A cells assessed as PI uptake level at 75 uM incubated for 3 days by propidium iodide staining based flow cytometry (reference value: 23%); type: functional
MCF7 [13] = test: Reduction of MUC1 mRNA levels in human MCF7 cells at 75 uM incubated for 3 days by qRT-PCR analysis; type: functional, cell-based
ZR-75-1 [14] = test: Induction of necrosis in human ZR-75-1 cells at 5 uM incubated for 3 days by propidium iodide staining based flow cytometry (reference value: 8%); type: functional
ZR-75-1 [15] = test: Antitumor activity against human ZR-75-1 xenografted in nu/nu mouse assessed as induction of necrosis in tumor at 50 mg/kg/day, ip for 21 days; type: functional, organism-based
[16] = Drug uptake in human ZR-75-1 cells assessed as mean fluorescence intensity at 5 uM using FITC-tagged peptide incubated for 2 hrs by flow cytometry (reference value: 24); type: ADME, cell-based; settings: zr-75-1, 2 h
MCF7 [17] = test: Induction of cell cycle arrest in human MCF7 cells assessed as accumulation at S phase at 5 uM incubated for 3 days by propidium iodide staining based flow cytometry (reference value: 21%); type: functional
Mucin-1 (Homo sapiens) [18] = target: Mucin-1 (Homo sapiens) (UniProt P15941); test: Inhibition of MUC1 nuclear import in human ZR-75-1 cells assessed as decrease in nuclear MUC1-C levels at 5 uM by Western blot analysis; type: cell-based
MCF-10A [19] = test: Induction of cell cycle arrest in human MCF10A cells assessed as accumulation at S phase at 5 uM incubated for 4 days by propidium iodide staining based flow cytometry (reference value: 38%); settings: 96 h
MCF7 [20] = test: Induction of cell cycle arrest in human MCF7 cells assessed as accumulation at G1 phase at 5 uM incubated for 3 days by propidium iodide staining based flow cytometry (reference value: 70%); type: functional
ZR-75-1 [21] = test: Induction of cell cycle arrest in human ZR-75-1 cells assessed as accumulation at G2 phase at 5 uM incubated for 3 days by propidium iodide staining based flow cytometry (reference value: 7%); type: functional
ZR-75-1 [22] = test: Induction of necrosis in human ZR-75-1 cells at 5 uM incubated for 4 days by propidium iodide staining based flow cytometry (reference value: 8%); type: functional
ZR-75-1 [23] = test: Antitumor activity against human ZR-75-1 xenografted in nu/nu mouse assessed as reduction in tumor growth at 50 mg/kg/day, ip for 7 days followed by treatment cessation and measured over next 17 days; type: functional, organism-based
ZR-75-1 [24] = test: Suppression of MUC1 protein expression in tumor area of human ZR-75-1 xenografted in nu/nu mouse at 50 mg/kg/day, ip for 21 days; type: functional, organism-based
MCF7 [25] = test: Induction of necrosis in human MCF7 cells at 5 uM incubated for 4 days by propidium iodide staining based flow cytometry (reference value: 5%); type: functional
MCF7 [26] = test: Induction of necrosis in human MCF7 cells at 5 uM incubated for 3 days by propidium iodide staining based flow cytometry (reference value: 5%); type: functional
[27] = Drug uptake in human ZR-75-1 cells assessed as mean fluorescence intensity at 5 uM using FITC-tagged peptide incubated for 6 hrs by flow cytometry (reference value: 24); type: ADME, cell-based; settings: zr-75-1, 6 h
ZR-75-1 [28] = test: Growth inhibition in human ZR-75-1 cells assessed as reduction in cell number up to 96 hrs in presence of control siRNA; type: functional, cell-based
Mucin-1 (Homo sapiens) [29] = target: Mucin-1 (Homo sapiens) (UniProt P15941); test: Inhibition of MUC1-CD dimerization (unknown origin) expressed in HEK293 cells assessed as disruption of interaction between Flag-MUC1-CD and GFP-MUC1-CD at […] by coimmunoprecipitation assay; type: cell-based
HEK293 = test: Growth inhibition of HEK293 cells assessed as reduction in cell number up to 96 hrs; type: cell-based; settings: human, hek293, 96 h
ZR-75-1 [30] = test: Induction of cell cycle arrest in human ZR-75-1 cells assessed as accumulation at S phase at 5 uM incubated for 3 days by propidium iodide staining based flow cytometry (reference value: 29%); type: functional
ZR-75-1 [31] = test: Induction of cell cycle arrest in human ZR-75-1 cells assessed as accumulation at G1 phase at 5 uM incubated for 3 days by propidium iodide staining based flow cytometry (reference value: 64%); type: functional
Mucin-1 (Homo sapiens) [32] = target: Mucin-1 (Homo sapiens) (UniProt P15941); test: Inhibition of MUC1 nuclear import in human MCF7 cells assessed as decrease in nuclear MUC1-C levels at 5 uM by Western blot analysis; type: cell-based
[33] = Toxicity in nu/nu mouse assessed as effect on body weight at 50 mg/kg, ip for 11 days measured over next 28 days after stopping drug administration; type: organism-based; settings: in vivo, 672 h
ZR-75-1 [34] = test: Induction of cell cycle arrest in human ZR-75-1 cells assessed as accumulation at G2 phase at 5 uM incubated for 4 days by propidium iodide staining based flow cytometry (reference value: 7%); type: functional
MCF-10A [35] = test: Growth inhibition in human MCF10A cells assessed as reduction in cell number up to 96 hrs; type: cell-based
Mucin-1 (Homo sapiens) [36] = target: Mucin-1 (Homo sapiens) (UniProt P15941); test: Inhibition of His-tagged MUC1-CD dimerization (unknown origin) assessed as decrease in oligomer formation incubated for 1 hr by SDS-polyacrylamide electrophoresis method based luminescence assay
MCF-10A [37] = test: Induction of cell cycle arrest in human MCF10A cells assessed as accumulation at S phase at 5 uM incubated for 3 days by propidium iodide staining based flow cytometry (reference value: 38%); settings: 72 h
ZR-75-1 [38] = test: Induction of cell cycle arrest in human ZR-75-1 cells assessed as accumulation at G1 phase at 5 uM incubated for 4 days by propidium iodide staining based flow cytometry (reference value: 64%); type: functional
ZR-75-1 [39] = test: Effect on cellular MUC1-C levels in human ZR-75-1 cells at 5 uM using FITC-tagged peptide by Western blot analysis; type: functional, cell-based
MCF7 [40] = test: Induction of cell cycle arrest in human MCF7 cells assessed as accumulation at G2 phase at 5 uM incubated for 3 days by propidium iodide staining based flow cytometry (reference value: 9%); type: functional
ZR-75-1 [41] = test: Antitumor activity against human ZR-75-1 xenografted in nu/nu mouse assessed as reduction in tumor growth at 50 mg/kg/day, ip for 7 days measured on day 7; type: functional, organism-based
ZR-75-1 [42] = test: Growth inhibition in human ZR-75-1 cells assessed as reduction in cell number up to 96 hrs in presence of MUC1 siRNA; type: functional, cell-based
ZR-75-1 [43] = test: Induction of cell cycle arrest in human ZR-75-1 cells assessed as accumulation at S phase at 5 uM incubated for 4 days by propidium iodide staining based flow cytometry (reference value: 29%); type: functional
[44] = Drug uptake in human ZR-75-1 cells assessed as mean fluorescence intensity at 5 uM using FITC-tagged peptide incubated for 24 hrs by flow cytometry (reference value: 24); type: ADME, cell-based; settings: zr-75-1, 24 h
ZR-75-1 [45] = test: Growth inhibition of human ZR-75-1 cells assessed as reduction in cell number incubated up to 2 days by MTS assay; type: functional, cell-based

SMILES: CC(=O)C(C)Oc1ccc2c(-c3ccccc3)cc(=O)oc2c1 (stereo not drawn)
- inhibition (Mucin-1 (Homo sapiens) [1]): > 50%

SMILES: CCCc1cc2c(=O)c(-c3ccc4c(c3)OCCCO4)c(C)oc2cc1OC
- inhibition (Mucin-1 (Homo sapiens) [1]): > 50%

SMILES: O=c1cc(-c2ccccc2)oc2cc(O)c(O)c(O)c12 [BAICALEIN]
- Activity (MCF-10A [2]): 27%
- inhibition (Mucin-1 (Homo sapiens) [1]): inactive
- inhibition (Mucin-1 (Homo sapiens) [3]): inactive
- Activity (MCF7 [4]): 19%
- inhibition (Mucin-1 (Homo sapiens) [5]): inactive
- Activity (MCF-10A [6]): inactive
- growth inhibition (GI) (MCF-10A [7]): inactive
- inhibition (Mucin-1 (Homo sapiens) [8]): inactive
- Activity (MCF-10A [9]): inactive
- inhibition (Mucin-1 (Homo sapiens) [10]): inactive
- inhibition (Mucin-1 (Homo sapiens) [11]): inactive
- Activity (MCF-10A [12]): 28%
- Activity (MCF7 [13]): inactive

SMILES: COc1ccc2c(=O)c(-c3cscn3)c(C(F)(F)F)oc2c1
- inhibition (Mucin-1 (Homo sapiens) [1]): > 50%

SMILES: CCOC(=O)c1oc2cc(OCc3ccc(C(=O)OC)o3)ccc2c(=O)c1-c1ccc(C(=O)OC)o1
- inhibition (Mucin-1 (Homo sapiens) [1]): > 50%

SMILES: O=c1cc(C(F)(F)F)c2ccc(OCc3ccccc3)cc2o1
- inhibition (Mucin-1 (Homo sapiens) [1]): > 50%

SMILES: CC[C@H](C)[C@H](NC(=O)[C@H](CC(=O)O)NC(=O)[C@H](CC(C)C)NC(=O)[C@H](CCC(N)=O)NC(=O)CNC(=O)[C@H](Cc1ccc(O)cc1)NC(=O)[C@H](CC(N)=O)NC(=O)[C@H](CCCCN)NC(=O)[C@H](CCCNC(=N)N)NC(=O)[C@H](CCCNC(=N)N)NC(=O)[C@H](CS)NC(=O)[C@H](CCC(N)=O)NC(=O)[C@H](CS)NC(=O)[C@H](CCCNC(=N)N)NC(=O)[C@@H](CCCNC(=N)N)NC(=O)[C@@H](CCCNC(=N)N)NC(=O)[C@@H](CCCNC(=N)N)NC(=O)[C@@H](CCCNC(=N)N)NC(=O)[C@@H](CCCNC(=N)N)NC(=O)[C@@H](CCCNC(=N)N)NC(=O)[C@@H](CCCNC(=N)N)NC(=O)[C@H](N)CCCNC(=N)N)C(=O)N[C@@H](Cc1ccccc1)C(=O)N1CCC[C@H]1C(=O)O
- Activity (ZR-75-1 [14]): 34%
- Activity (ZR-75-1 [15]): Active
- Flu intensity [16]: 145
- Activity (MCF7 [17]): 46%
- inhibition (Mucin-1 (Homo sapiens) [18]): Active
- Activity (MCF-10A [19]): 42%
- Activity (MCF7 [20]): 54%
- Activity (ZR-75-1 [21]): 2%
- Activity (ZR-75-1 [22]): 74%
- Activity (ZR-75-1 [23]): Active
- Activity (ZR-75-1 [24]): Active
- Activity (MCF7 [25]): 44%
- Activity (MCF7 [26]): 24%
- Flu intensity [27]: 252
- growth inhibition (GI) (ZR-75-1 [28]): Active
- inhibition (Mucin-1 (Homo sapiens) [29]): Active
- growth inhibition (GI) (HEK293): Non-Toxic
- Activity (ZR-75-1 [30]): 69%
- Activity (ZR-75-1 [31]): 29%
- inhibition (Mucin-1 (Homo sapiens) [32]): Active
- Activity [33]: Non-Toxic
- Activity (ZR-75-1 [34]): 14%
- growth inhibition (GI) (MCF-10A [35]): Non-Toxic
- inhibition (Mucin-1 (Homo sapiens) [36]): Active
- Activity (MCF-10A [37]): 42%
- Activity (ZR-75-1 [38]): 49%
- Activity (ZR-75-1 [39]): inactive
- Activity (MCF7 [40]): 0%
- Activity (ZR-75-1 [41]): Active
- growth inhibition (GI) (ZR-75-1 [42]): inactive
- Activity (ZR-75-1 [43]): 37%
- Flu intensity [44]: 615

SMILES: CCCCc1cc2c(=O)c(-c3cc[nH]n3)c(C)oc2cc1O
- inhibition (Mucin-1 (Homo sapiens) [1]): > 50%

SMILES: O=c1c(O)c(-c2ccc(O)cc2)oc2cc(O)cc(O)c12
- growth inhibition (GI) (ZR-75-1 [45]): Active

SMILES: CCCc1c(C)c2ccc(OC(=O)C(C)NC(=O)OCc3ccccc3)cc2oc1=O (stereo not drawn)
- inhibition (Mucin-1 (Homo sapiens) [1]): > 50%
